Measurements reported in patent US9241492B2, “Bioactive acid agrichemical compositions and use thereof” (Sciessent LLC, priority 2007, dated 2016).

System: E. amylovora 153N
Assay: Fire blight on Snow Drift crabapple trees (Example 311)
Assay type: in vivo
Details: rate 5 lbs/a (2.27 kg/a)
Method: A study of the bioefficacy of the various agrichemical compositions, including bioactive acid solutions and blends thereof with an antibiotic agrichemical, were evaluated to assess their bioefficacy against fire blight on crabapples. The study was conducted on 5 year old Snow Drift crabapple trees, with each of the compositions being applied to ten trees in two-subplots of five trees, four different times: at 100% bloom—day 1, a second application was made on day 4, a third on day 11 and a final treatment on day 19. The trees were inoculated with E. amylovora 153N at a concentration of 4×10^6 cells per milliliter on day 1, following drying of the treatment, with the inoculation being repeated on day 13. Evaluation for fire blight was completed on 100 blossoms for each of the subplots on day 12, day 19 and day 27. Additionally, the incidence of shoot infection and the length of cankers were evaluated on day 63.
The test compositions were prepared by forming solutions of the bioactive agents. Two different dilutions of the MI2 bioactive were evaluated, the first employing 94.46 ml/gallon (25 ml/l) of water (5 ppm of each metal) and the second 188.9 ml/gallon (50 ml/l) of water (10 ppm of each metal). A streptomycin product (17% concentrated) was diluted at a rate of 0.049 lbs/gallon ([…]) (200 ppm). Finally, copper hydroxide was diluted at a rate of 1 lb/gallon (119.8 g/l). Each of the compositions and blends were spray applied at a rate of 50 gallons (189.3 l) pre acre. The results are presented as the mean of the counts.

[Cu+2].[OH-].[OH-] [copper hydroxide]
Blossom Incidence Day 12 (day 12, mean of counts per 100 blossoms): 3.1 | Blossom Incidence Day 19 (day 19): 2.2 | Blossom Incidence Day 27 (day 27): 9.0 | Canker Size Day 63 (day 63): 0.0 cm | Shoot Incidence Day 63 (day 63): 1.0
